Data as given in patent US11642339B2 (THERAVANCE BIOPHARMA R&D IP, LLC, priority 2017, dated 2023).
“And” between values parts separate entries of the source, which are not always exact repeats. Equal values may be shown once.

Tests used:
[1] = test system: subjects with diabetic or idiopathic gastroparesis; test: DIGEST I: weekly GRS total score; conditions: ITT
Source text: Gastroparesis Rating Score is a patient reported outcome that measures 9 symptoms: (1) nausea, (2) bloating, (3) postprandial fullness, (4) early satiety, (5) vomiting, (6) abdominal pain, (7) epigastric burning, (8) gastric reflux with or without burning, and (9) bowel movements, using up to 27 questions assessing the severity of the symptom, the daily frequency of the symptom, the length of time on a daily basis of the symptom, and whether the symptom continues over a 24-hour period.
(§1) The total duration of study participation for each completed subject was approximately 19 weeks including: • Screening period: up to 5 weeks, including one week baseline period; • Treatment period: 12 weeks; and • Follow-up: 2 weeks.
During the treatment period, subjects were instructed to take 1 capsule of study drug once daily approximately 30 minutes prior to eating at approximately the same time each morning and to record the time of drug ingestion in the electronic diary. Subjects also completed the GCS1-24H and GRS on a daily basis using an electronic diary. […] Subjects returned to the study center for safety and efficacy assessments as detailed in the Schedule of Study Procedures.
A daily proprietary patient reported outcome (PRO) tool was used to assess GP symptoms, the Gastroparesis Rating Scale (GRS), developed according to the current FDA PRO guidance. The GRS covers the following cardinal symptom domains: (1) nausea, (2) vomiting, (3) postprandial fullness/early satiety, (4) bloating, (5) upper abdominal pain, (6) gastric reflux/burning, and (7) bowel movements. The GRS symptom domains may be also categorized or grouped into Factor 1 (fullness, early satiety, bloating, upper abdominal pain, and epigastric burning) and Factor 2 (nausea and vomiting).
The primary endpoint evaluation time point was Week 4 with sensitivity analyses conducted at Weeks 8 and 12.
LS Mean Differences in each subgroup are calculated based on repeated measures mixed effect model with change from baseline in weekly GRS total score as dependent variable, treatment, gastroparesis type (diabetic vs. idiopathic), GE test time (historical vs. prospective), baseline GRS total score, time, subgroup variable, interaction effect of treatment by time, baseline GRS total score by time, treatment by subgroup variable, time by subgroup variable and treatment by time by subgroup variable as fixed effect, a random effect of subject within site, using an unstructured covariance structure.

[2] = test system: subjects with diabetic or idiopathic gastroparesis; test: DIGEST I Phase 2b: weekly GCSI-24H total score;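 also: Patient-reported daily electronic-diary symptom index rating nausea/vomiting, postprandial fullness/early satiety and bloating, averaged weekly, once-daily oral capsule taken before breakfast, baseline from 1-week pretreatment period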
Source text: as §1
To qualify for entry into the Baseline Period of the study, subjects had to have: a) a composite score of 2 and <5 points on nausea, bloating, feeling excessively full after meals, and not able to finish a normal-sized meal on the GCS1-2W; b) a score of ≥3 points for at least 2 of these 4 symptoms on the GCS1-2W at Screening; and c) delayed gastric emptying as determined by either a 4-hour ^99mTc GES or GEBT. If a subject failed either the GES or GEBT at Screening, then a second gastric emptying test could have been performed during the Screening Period using the GEBT in order to qualify for the study. Subjects who were eligible for further study participation completed the 2 daily PRO measures (the Gastroparesis Rating Scale [GRS] and a daily version of the GCSI, designated the Gastroparesis Cardinal Symptoms Index—24-Hour Recall [GCS1-24H] in this study) over a 7-day period to establish baselines.
After the 1-week Baseline Period, subjects were required to have a 7-day mean score of ≥2.5 and <5 points on the GCS.1-24H at Day 1 to be eligible for entry. Eligible subjects completed the Patient Assessment of Upper Gastrointestinal Quality of Life (PAG1-QOL) questionnaire to establish baseline QOL metrics at Day 1.
During the treatment period, subjects were instructed to take 1 capsule of study drug once daily approximately 30 minutes prior to eating at approximately the same time each morning and to record the time of drug ingestion in the electronic diary. Subjects also completed the GCS1-24H and GRS on a daily basis using an electronic diary. At specified times, subjects also completed the PAG1-QOL questionnaire to assess QOL metrics and the Treatment Satisfaction Questionnaire. In addition, subjects and clinicians completed the Overall Treatment Effect (OTE) and Overall Gastroparesis Severity (OGS) instruments to serve as anchor instruments for the psychometric evaluation of the GRS measure. Subjects returned to the study center for safety and efficacy assessments as detailed in the Schedule of Study Procedures.
A total score was used to assess the GCSI PRO, which comprised a mean of 3 means symptoms domain score.
Each individual domain was evaluated. […] LS Mean Differences in each subgroup are calculated based on repeated measures mixed effect model with change from baseline in weekly GCSI-24H total score as dependent variable, treatment, gastroparesis type (diabetic vs. idiopathic), GE test time (historical vs. prospective), baseline GCSI 24H total score, time, subgroup variable, interaction effect of treatment by time, baseline GCSI 24H total score by time, treatment by subgroup variable, time by subgroup variable and treatment by time by subgroup variable as fixed effect, a random effect of subject within site, using an unstructured covariance structure. For GCSI baseline subgroup analysis, baseline 24H total score is replaced with GCSI baseline categorical variable.

[3] = 5 mg/day, Week 4, diabetic patients
[4] = 5 mg/day, Week 4, idiopathic patients
[5] = 5 mg/day, Week 8, diabetic patients
[6] = 5 mg/day, Week 8, idiopathic patients
[7] = 5 mg/day, Week 12, diabetic patients
[8] = 5 mg/day, Week 12, idiopathic patients
[9] = 5 mg/day, Week 14 (off therapy), diabetic patients
[10] = 5 mg/day, Week 14 (off therapy), idiopathic patients
[11] = 15 mg/day, Week 4, diabetic patients
[12] = 15 mg/day, Week 4, idiopathic patients
[13] = 15 mg/day, Week 8, diabetic patients
[14] = 15 mg/day, Week 8, idiopathic patients
[15] = 15 mg/day, Week 12, diabetic patients
[16] = 15 mg/day, Week 12, idiopathic patients
[17] = 15 mg/day, Week 14 (off therapy), diabetic patients
[18] = 15 mg/day, Week 14 (off therapy), idiopathic patients
[19] = 30 mg/day, Week 4, diabetic patients
[20] = 30 mg/day, Week 4, idiopathic patients
[21] = 30 mg/day, Week 8, diabetic patients
[22] = 30 mg/day, Week 12, diabetic patients
[23] = 30 mg/day, Week 12, idiopathic patients
[24] = 30 mg/day, Week 14 (off therapy), diabetic patients
[25] = 30 mg/day, Week 14 (off therapy), idiopathic patients

1-isopropyl-2-oxo-1,2-dihydroquinoline-3-carboxylic acid {(1S,3R,5R)-8-[(R)-2-hydroxy-3-(methanesulfonyl-methyl-amino)propyl]-8-azabicyclo[3.2.1]oct-3-yl}amide [Velusetrag]
LS Mean Difference vs placebo, weekly GRS total score ([1]; 5 mg/day, Week 4): −0.4 points and −0.4 (0.16) points | LS Mean change from baseline, weekly GRS total score ([1]; 5 mg/day, Week 4): −1.3 (0.11) points | LS Mean Difference vs placebo, weekly GRS total score ([1]; 5 mg/day, Week 8): −0.3 (0.18) points | LS Mean change from baseline, weekly GRS total score ([1]; 5 mg/day, Week 8): −1.4 (0.13) points | LS Mean Difference vs placebo, weekly GRS total score ([1]; 5 mg/day, Week 12): −0.4 (0.18) points | LS Mean change from baseline, weekly GRS total score ([1]; 5 mg/day, Week 12): −1.5 (0.13) points | LS Mean Difference vs placebo, weekly GRS total score ([1]; 15 mg/day, Week 4): −0.2 (0.17) points | LS Mean change from baseline, weekly GRS total score ([1]; 15 mg/day, Week 4): −1.1 (0.12) points | LS Mean Difference vs placebo, weekly GRS total score ([1]; 15 mg/day, Week 8): −0.1 (0.19) points | LS Mean change from baseline, weekly GRS total score ([1]; 15 mg/day, Week 8): −1.2 (0.14) points | LS Mean Difference vs placebo, weekly GRS total score ([1]; 15 mg/day, Week 12): −0.2 (0.19) points | LS Mean change from baseline, weekly GRS total score ([1]; 15 mg/day, Week 12): −1.3 (0.14) points | LS Mean Difference vs placebo, weekly GRS total score ([1]; 30 mg/day, Week 4): 0.0 (0.17) points | LS Mean change from baseline, weekly GRS total score ([1]; 30 mg/day, Week 4): −0.8 (0.12) points | LS Mean Difference vs placebo, weekly GRS total score ([1]; 30 mg/day, Week 8): −0.1 (0.19) points | LS Mean change from baseline, weekly GRS total score ([1]; 30 mg/day, Week 8): −1.1 (0.13) points | LS Mean Difference vs placebo, weekly GRS total score ([1]; 30 mg/day, Week 12): −0.1 (0.19) points | LS Mean change from baseline, weekly GRS total score ([1]; 30 mg/day, Week 12): −1.3 (0.13) points | LS Mean Difference vs placebo, weekly GCSI-24H total score ([2]; 5 mg/day, Week 4, ITT): −0.4 points | LS Mean change from baseline, weekly GCSI-24H total score ([2]; 5 mg/day, Week 4, ITT): −1.5 (0.13) points | LS Mean Difference vs placebo, weekly GCSI-24H total score ([2]; 5 mg/day, Week 4, ITT, listed as VEL): −0.4 (0.18) points | LS Mean Difference vs placebo, weekly GCSI-24H total score [2, 3]: −0.2 (0.25) points | LS Mean change from baseline, weekly GCSI-24H total score [2, 3]: −1.5 (0.18) points | LS Mean Difference vs placebo, weekly GCSI-24H total score [2, 4]: −0.6 (0.26) points | LS Mean change from baseline, weekly GCSI-24H total score [2, 4]: −1.5 (0.18) points | LS Mean Difference vs placebo, weekly GCSI-24H total score ([2]; 5 mg/day, Week 8, ITT): −0.3 (0.20) points | LS Mean change from baseline, weekly GCSI-24H total score ([2]; 5 mg/day, Week 8, ITT): −1.6 (0.14) points | LS Mean Difference vs placebo, weekly GCSI-24H total score [2, 5]: −0.1 (0.27) points | LS Mean change from baseline, weekly GCSI-24H total score [2, 5]: −1.6 (0.19) points | LS Mean Difference vs placebo, weekly GCSI-24H total score [2, 6]: −0.6 (0.28) points | LS Mean change from baseline, weekly GCSI-24H total score [2, 6]: −1.6 (0.20) points | LS Mean Difference vs placebo, weekly GCSI-24H total score ([2]; 5 mg/day, Week 12, ITT): −0.3 points | LS Mean change from baseline, weekly GCSI-24H total score ([2]; 5 mg/day, Week 12, ITT): −1.7 (0.15) points | LS Mean Difference vs placebo, weekly GCSI-24H total score ([2]; 5 mg/day, Week 12, ITT, listed as VEL): −0.3 (0.21) points | LS Mean Difference vs placebo, weekly GCSI-24H total score [2, 7]: −0.0 (0.29) points | LS Mean change from baseline, weekly GCSI-24H total score [2, 7]: −1.7 (0.21) points | LS Mean Difference vs placebo, weekly GCSI-24H total score [2, 8]: −0.6 (0.30) points | LS Mean change from baseline, weekly GCSI-24H total score [2, 8]: −1.7 (0.21) points | LS Mean Difference vs placebo, weekly GCSI-24H total score [2, 9]: −0.2 (0.29) points | LS Mean change from baseline, weekly GCSI-24H total score [2, 9]: −1.7 (0.20) points | LS Mean Difference vs placebo, weekly GCSI-24H total score [2, 10]: −0.4 (0.30) points | LS Mean change from baseline, weekly GCSI-24H total score [2, 10]: −1.4 (0.21) points | LS Mean Difference vs placebo, weekly GCSI-24H total score ([2]; 15 mg/day, Week 4, ITT): −0.1 (0.19) points | LS Mean change from baseline, weekly GCSI-24H total score ([2]; 15 mg/day, Week 4, ITT): −1.2 (0.14) points | LS Mean Difference vs placebo, weekly GCSI-24H total score [2, 11]: 0.1 points | LS Mean change from baseline, weekly GCSI-24H total score [2, 11]: −1.2 points | LS Mean Difference vs placebo, weekly GCSI-24H total score [2, 12]: −0.3 (0.28) points | LS Mean change from baseline, weekly GCSI-24H total score [2, 12]: −1.2 (0.20) points | LS Mean Difference vs placebo, weekly GCSI-24H total score ([2]; 15 mg/day, Week 8, ITT): −0.1 (0.21) points | LS Mean change from baseline, weekly GCSI-24H total score ([2]; 15 mg/day, Week 8, ITT): −1.3 (0.15) points | LS Mean Difference vs placebo, weekly GCSI-24H total score [2, 13]: 0.3 points | LS Mean change from baseline, weekly GCSI-24H total score [2, 13]: −1.2 points | LS Mean Difference vs placebo, weekly GCSI-24H total score [2, 14]: −0.4 (0.30) points | LS Mean change from baseline, weekly GCSI-24H total score [2, 14]: −1.5 (0.22) points | LS Mean Difference vs placebo, weekly GCSI-24H total score ([2]; 15 mg/day, Week 12, ITT): −0.0 (0.22) points | LS Mean change from baseline, weekly GCSI-24H total score ([2]; 15 mg/day, Week 12, ITT): −1.4 (0.16) points | LS Mean Difference vs placebo, weekly GCSI-24H total score [2, 15]: 0.4 points | LS Mean change from baseline, weekly GCSI-24H total score [2, 15]: −1.3 points | LS Mean Difference vs placebo, weekly GCSI-24H total score [2, 16]: −0.4 (0.32) points | LS Mean change from baseline, weekly GCSI-24H total score [2, 16]: −1.5 (0.24) points | LS Mean Difference vs placebo, weekly GCSI-24H total score [2, 17]: 0.4 points | LS Mean change from baseline, weekly GCSI-24H total score [2, 17]: −1.1 points | LS Mean Difference vs placebo, weekly GCSI-24H total score [2, 18]: −0.1 (0.31) points | LS Mean change from baseline, weekly GCSI-24H total score [2, 18]: −1.2 (0.23) points | LS Mean Difference vs placebo, weekly GCSI-24H total score ([2]; 30 mg/day, Week 4, ITT): 0.1 (0.19) points | LS Mean change from baseline, weekly GCSI-24H total score ([2]; 30 mg/day, Week 4, ITT): −1.0 (0.13) points | LS Mean Difference vs placebo, weekly GCSI-24H total score [2, 19]: 0.2 points | LS Mean change from baseline, weekly GCSI-24H total score [2, 19]: −1.0 points | LS Mean Difference vs placebo, weekly GCSI-24H total score [2, 20]: −0.1 (0.26) points | LS Mean change from baseline, weekly GCSI-24H total score [2, 20]: −1.0 (0.18) points | LS Mean Difference vs placebo, weekly GCSI-24H total score ([2]; 30 mg/day, Week 8, ITT): −0.0 (0.20) points | LS Mean change from baseline, weekly GCSI-24H total score ([2]; 30 mg/day, Week 8, ITT): −1.3 (0.14) points | LS Mean Difference vs placebo, weekly GCSI-24H total score [2, 21]: 0.2 points | LS Mean change from baseline, weekly GCSI-24H total score [2, 21]: −1.3 points | LS Mean Difference vs placebo, weekly GCSI-24H total score ([2]; 30 mg/day, Week 8, idiopathic patients): −0.2 (0.29) points | LS Mean Difference vs placebo, weekly GCSI-24H total score ([2]; 30 mg/day, Week 12, ITT): −0.1 (0.22) points | LS Mean change from baseline, weekly GCSI-24H total score ([2]; 30 mg/day, Week 12, ITT): −1.5 (0.15) points | LS Mean Difference vs placebo, weekly GCSI-24H total score [2, 22]: 0.1 points | LS Mean change from baseline, weekly GCSI-24H total score [2, 22]: −1.6 points | LS Mean Difference vs placebo, weekly GCSI-24H total score [2, 23]: −0.2 (0.30) points | LS Mean change from baseline, weekly GCSI-24H total score [2, 23]: −1.3 (0.21) points | LS Mean Difference vs placebo, weekly GCSI-24H total score [2, 24]: −0.1 points | LS Mean change from baseline, weekly GCSI-24H total score [2, 24]: −1.7 points | LS Mean Difference vs placebo, weekly GCSI-24H total score [2, 25]: 0.0 (0.29) points | LS Mean change from baseline, weekly GCSI-24H total score [2, 25]: −1.0 (0.20) points
